Laboratory results as given in patent publication US20190365675A1, “COMPOSITIONS FOR THE PREVENTION AND/OR TREATMENT OF ALCOHOL USE DISORDERS” (SERVICIO ANDALUZ DE SALUD, priority 2016, published 2019).

How the values were obtained:
Format in all cases: in vivo, Wistar rats
MCP-1 = MCP-1 levels (ELISA) in frontal cortex after ethanol intoxication; settings: OEA pre-treatment
Method: The animals were treated with intragastric (i.g.) ethanol 3 times a day using an i.g. cannula (16G needle, Fisher Scientific, Waltham, Mass., USA), following a protocol based on a slightly modified standard 4-day alcohol intoxication pattern (Bernier et al., 2002a, b) (FIG. 1A). The ethanol doses were administered every 8 h for a total time of 4 days. The rats treated with ethanol received an initial loading dose of 5 g/kg of ethanol in a 30% solution (w/v) and then a maximum maintenance dose of 3 g/kg, which were determined based on blood ethanol levels (BEL). This repeated standard alcohol intoxication paradigm kept BEL intoxication relatively constant in a range of sedation/ataxia (190 to 430 mg/dl, Table 3), according to the 6-point alcohol intoxication behavior scale (Majchrowicz, 1975). The mean dose of ethanol/rat/day (days 1-4) was 7.06 g/kg, similar to other studies (Obernier et al., 2002a, b). […] The levels of soluble HMGB1, TNF-α, IL-1β and MCP-1 were determined by means of a commercially available enzyme-linked immunosorbent assay kit (ELISA) (Elabscience Biotechnology Co., Ltd., China, for HMGB-1; RayBiotech®, GA, USA, for TNF-α, IL-1β, and MCP-1). The nuclear/cytosol HMGB1 fraction was determined by means of Western blot analysis.

corticosterone = assay: Plasma corticosterone levels (R.I.A.)
Method: The animals were treated with intragastric (i.g.) ethanol 3 times a day using an i.g. cannula (16G needle, Fisher Scientific, Waltham, Mass., USA), following a protocol based on a slightly modified standard 4-day alcohol intoxication pattern (Bernier et al., 2002a, b) (FIG. 1A). The ethanol doses were administered every 8 h for a total time of 4 days. The rats treated with ethanol received an initial loading dose of 5 g/kg of ethanol in a 30% solution (w/v) and then a maximum maintenance dose of 3 g/kg, which were determined based on blood ethanol levels (BEL). This repeated standard alcohol intoxication paradigm kept BEL intoxication relatively constant in a range of sedation/ataxia (190 to 430 mg/dl, Table 3), according to the 6-point alcohol intoxication behavior scale (Majchrowicz, 1975). The mean dose of ethanol/rat/day (days 1-4) was 7.06 g/kg, similar to other studies (Obernier et al., 2002a, b). […]
Corticosterone and LPS were measured in plasma by means of the use of radioimmunoassay (R.I.A.) kits available on the market (Coat-A-Count®, Siemens, La., USA) or colorimetric enzymatic reaction (HyCult Biotech, Uden, Netherlands), respectively.

MyD88 = MyD88 protein expression in frontal cortex after ethanol intoxication; settings: 2-4 h after last ethanol, OEA pre-treatment
Method: The animals were treated with intragastric (i.g.) ethanol 3 times a day using an i.g. cannula (16G needle, Fisher Scientific, Waltham, Mass., USA), following a protocol based on a slightly modified standard 4-day alcohol intoxication pattern (Bernier et al., 2002a, b) (FIG. 1A). The ethanol doses were administered every 8 h for a total time of 4 days. The rats treated with ethanol received an initial loading dose of 5 g/kg of ethanol in a 30% solution (w/v) and then a maximum maintenance dose of 3 g/kg, which were determined based on blood ethanol levels (BEL). This repeated standard alcohol intoxication paradigm kept BEL intoxication relatively constant in a range of sedation/ataxia (190 to 430 mg/dl, Table 3), according to the 6-point alcohol intoxication behavior scale (Majchrowicz, 1975). The mean dose of ethanol/rat/day (days 1-4) was 7.06 g/kg, similar to other studies (Obernier et al., 2002a, b). OEA (5 mg/kg, i.p., except initial dose of 10 mg/kg i.p.; synthesized as described in Giuffrida et al., 2000) was dissolved in the vehicle (5% Tween-80 in saline solution) and injected 10 minutes before each of the administrations of ethanol by an intragastric gavage. […] The autoradiograph was quantified by densitometry (NIH ImageJ® software, National Biosciences, Lincoln, Nebr. USA) and expressed as optical density (OD). […]

CCCCCCCC/C=C\CCCCCCCC(=O)NCCO [OEA, oleoylethanolamide]
Ethanol-induced increase in MCP-1 levels (MCP-1): prevented | Plasma corticosterone levels in the control animals (corticosterone; control animals (no ethanol)): did not modify | Ethanol-induced increase in plasma corticosterone levels (corticosterone; plasma, 2-4 h after last ethanol, OEA pre-treatment): prevented entirely | Ethanol-induced increase in expression of MyD88 protein (MyD88): inhibited
